The results in this text go back to ChEMBL document CHEMBL1201862, “PubChem BioAssay data set” (2004).

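Test compounds were applied to cells in 96-well plates for 48 hours at 5 doses. Here, GI50 denotes the concentration required for 50% inhibition of growth.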 Activity calls are given as the source filed them. Cut-off read from the data, not from the text of the source: active = GI50 up to about 1.1 µM and inactive = higher.

Some test systems named below: NCI-H522; SN12C; OVCAR-3; U-251; 786-0; ACHN; CAKI-1; LOX IMVI; M14; OVCAR-5; HCT-15; MDA-N; NCI-H23; NCI/ADR-RES; KM-20L2; T47D; K562; SK-OV-3; CCRF-CEM; SR.
What all share (assay): growth of human tumour cells (NCI), 48 h

With `O=P1(NCCCl)OCCC(OO)N1CCCl` (stereo not given), the GI50 is 11.5 µM (inactive) in the assay with NCI-H522; 37.4 µM (inactive) in the assay with SN12C; 23.2 µM (inactive) in the assay with OVCAR-3; 32.4 µM (inactive) in the assay on U-251; 26.1 µM (inactive) in the assay with 786-0; 14.4 µM (inactive) in the assay on ACHN. For the same compound, the GI50 is 18.3 µM (inactive) with CAKI-1; 1.82 µM (inactive) with LOX IMVI; 21.9 µM (inactive) in the assay with M14; 42.9 µM (inactive) in the assay on OVCAR-5; 18 µM with HCT-15; 29.3 µM (inactive) in the assay on MDA-N. For the same compound, the GI50 in the assay with NCI-H23 was 28.4 µM (inactive); in the assay with NCI/ADR-RES it was 28.7 µM (inactive); in the assay on KM-20L2, > 100 µM (inactive); in the assay with T47D, 0.316 µM (active); in the assay with K562 it was 19.4 µM (inactive); in the assay on SK-OV-3, > 94 µM (inactive). Besides, the values for the GI50 with CCRF-CEM and in the assay on SR were 9.44 µM (inactive) and > 100 µM (inactive), respectively.

In the case of `O=C1/C(=C/c2ccc(Cl)cc2)CCC1CN1CCOCC1` (stereo not given), the GI50 in the assay on NCI-H522 is 1.81 µM (inactive); in the assay on SN12C, 3.78 µM (inactive); in the assay with OVCAR-3, 6.37 µM (inactive); in the assay on U-251 it was 15.9 µM (inactive); in the assay with 786-0, 2.48 µM (inactive); in the assay on ACHN it was 11.2 µM (inactive). Moreover, the GI50 is 4.37 µM (inactive) in the assay on CAKI-1; 2.28 µM (inactive) in the assay with LOX IMVI; 5.48 µM (inactive) in the assay with M14; 23.2 µM (inactive) with OVCAR-5; 3.83 µM in the assay on HCT-15; 6.46 µM (inactive) in the assay on MDA-N. For the same compound, the GI50 with NCI-H23 was 9.14 µM (inactive); in the assay with NCI/ADR-RES it was 4.88 µM (inactive); with KM-20L2 it was 10.7 µM (inactive); in the assay on T47D it was 0.678 µM (active); with K562, 1.86 µM (inactive); in the assay on SK-OV-3, 18 µM (inactive). Besides, the values for the GI50 in the assay with CCRF-CEM and in the assay on SR were 1.13 µM (inactive) and 0.687 µM (active), respectively.
